From the METLIN SMRT retention time set (Domingo-Almenara et al. 2019)

Test: gradient 5% acetonitrile 3 min, to 50% in 2 min, to 85% in 15 min, held 3 min, 100 µL/min
Settings: column: Zorbax Extend-C18 2.1 x 50 mm; eluents: water / acetonitrile, 0.1% formic acid
How it was run: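 In both positive and negative ionization mode, a quadrupole time-of-flight mass spectrometer coupled to HPLC analyzed pure standards run in mixtures of ~100 molecules. The Zorbax Extend-C18 column (2.1 × 50 mm, 1.8 μm) was operated at 100 μL/min with water and acetonitrile, each containing 0.1% formic acid. The dead volume was 40 μL and the dwell volume 900 μL. Retention time came from adduct peaks that were computationally picked and individually inspected by hand.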

Point of comparison: Cc1ccccc1-c1nc(-c2cccc(-c3ccn[nH]3)c2)no1, RP-LC retention time 1080 s. Against it:
- COc1ccc(C(CC(=O)NCCN2CCCC2)N2Cc3ccccc3C2=O)cc1OC (configuration not stated) — lower, 609 s
- CN(CC1CCOC1)C(=O)Nc1ccc(F)cc1 (configuration not stated) — lower, 671 s
- O=C(NCCn1nnc2cc(C(=O)N3CCCCC3)ccc21)NC1CCCCC1 — lower, 707 s
- CCCCN(CCNc1ncnc2onc(-c3ccccc3OC)c12)Cc1ccco1 — lower, 726 s
- Cc1ccc2c(c1)cc(S(=O)(=O)c1ccccc1)c(=O)n2CC(=O)NC(C)C — lower, 808 s
- CCOC(=O)c1c(S(=O)(=O)N2CCC(C(=O)Nc3cccc(SC)c3)CC2)c(C)n(C)c1C — lower, 907 s
- CCN1c2ccc(C)cc2C(=O)NC12CCN(C(=O)c1ccc(F)c(F)c1)CC2 — lower, 826 s
- CC(C)c1noc(-c2ccnc(-n3cnc(C(=O)NCc4ccco4)c3)c2)n1 — lower, 809 s
- Cc1nn(C(C)C(=O)NCCCN(C)C2CCCCC2)c(=O)c2nn(-c3ccccc3)c(C)c12 (configuration not stated) — lower, 656 s
- Cc1ccc2[nH]cc(CCN3CC(C(=O)NCc4ccccc4Cl)CC3=O)c2c1 (configuration not stated) — lower, 846 s
- COc1cccc(C(=O)Nc2c(-c3ccc(F)cc3)nc3ccccn23)c1OC — lower, 667 s
- CCS(=O)(=O)c1ccc(-c2ccc(NS(=O)(=O)c3ccc(Cl)s3)cc2)nn1 — lower, 810 s
- O=C(c1ccco1)N1CCN(S(=O)(=O)CCCOc2ccc3c(c2)OCO3)CC1 — lower, 764 s
- CCC(CC)C(=O)N1C[C@H]2C[C@H](C1)[C@H]1CCCC(=O)N1C2 — lower, 645 s
- Cc1cccc(N2CCN(S(=O)(=O)c3cc(-c4nnc(C5CCC5)o4)co3)CC2)c1 — higher, 1110 s
- COc1ccc(Cl)cc1NC(=O)CSc1ccc(-c2ccccn2)nn1 — lower, 934 s
- CCC(C)NC(=O)Cn1cnc2nc(N3CCCC(C(=O)NC(C)C)C3)sc2c1=O (configuration not stated) — lower, 643 s
- CCSCCOC(=O)C1=C(C)NC2=C(C(=O)CC(C)(C)C2)C1c1ccccn1 (configuration not stated) — lower, 648 s
- O=C(c1n[nH]c2ccccc12)N1CCC[C@H]1c1nc(-c2ccccc2)n[nH]1 — lower, 683 s
- COCCn1c(CCCC(=O)NCc2ccccn2)nc2cccnc21 — lower, 545 s
- CCc1noc(NC(C)=O)c1-c1ccc(OC)c(S(=O)(=O)Nc2ccc(OC)cc2OC)c1 — lower, 777 s
- CCCNC(=O)C1CCN(c2ccc(SCC(=O)NCc3ccc(OC)cc3)nn2)CC1 — lower, 621 s
- O=C(C1CC(=O)N(C2CCCCC2)C1)N1CCC2(CC1)NCCc1c2[nH]c2ccccc12 (configuration not stated) — lower, 654 s
- COc1ccc(NC(=O)Cc2c(C)nn(-c3nc(-c4ccc(Cl)cc4)cs3)c2C)c(OC)c1 — higher, 1230 s
- Cc1ccc(-c2cc3n(n2)CCCN(C(=O)c2ccccn2)C3)cc1 — lower, 766 s
- CON=C(C(=O)N[C@@H]1C(=O)N2C(C(=O)O)=C(CSc3nnnn3C)CS[C@H]12)c1csc(N)n1 — lower, 621 s
- CCCc1cc(NC)n2ncc(-c3ccccc3)c2n1 — lower, 683 s
- c1ccc2sc(SCc3cn4cccnc4n3)nc2c1 — lower, 622 s
- Cc1ccc(-c2nc3cnccn3c2NCCC(=O)NC(C)c2cccs2)cc1 (configuration not stated) — lower, 734 s
- O=C(Cn1cnc2nc(N3CCCC(C(=O)NC4CC4)C3)sc2c1=O)Nc1cc(F)ccc1F (configuration not stated) — lower, 693 s
- CCC(=O)N(C1CCOCC1)C1CCN(S(=O)(=O)c2cccc(Cl)c2)CC1 — lower, 872 s
- O=C(Nc1c(-c2ccccc2)nc2ccccn12)c1ccccc1F — lower, 638 s
- CCCN(CC1CCOC1)C(=O)c1ccc(F)c(F)c1 (configuration not stated) — lower, 787 s
- CCc1noc(-c2ccc(-n3ncc(C(=O)N4CCSCC4)c3C)nc2)n1 — lower, 893 s
- COc1ccc(NC(=O)C2CCN(S(=O)(=O)c3cn(C(C)C)cn3)CC2)cc1 — lower, 711 s
- Cn1nc(C(=O)Nc2ccccc2)c2c1CCN(C(=O)NCc1ccco1)C2 — lower, 760 s
- COCCOc1nc(N)c2[nH]c(=O)n(Cc3ccccc3)c2n1 — lower, 676 s
- O=S(=O)(Nc1ccc(F)cc1)c1cccnc1Nc1ccc(Br)cc1 — higher, 1150 s
- CCOC(=O)C1=C(C)NC(C)=C(C(=O)OCC)C1c1ccncc1 — lower, 564 s
- O=C(NCC(=O)N1CCOC(c2ccccc2)C1)c1ccc(-c2ccccc2)cc1 (configuration not stated) — lower, 893 s
- CCOC(=O)C(C)Oc1ccc2c(c1)O/C(=C\c1cc(Cl)cc3c1OCOC3)C2=O (configuration not stated) — higher, 1160 s
- CC(C)NC(=O)c1ccc(OCC2CCN(C(=O)Cc3ccc(Cl)cc3)CC2)cc1 — lower, 927 s
- O=S(=O)(c1ccc2c(c1)CCC2)N1CC(c2nc(CCOCc3ccccc3)no2)C1 — higher, 1140 s
- CC(NC(=O)c1c(O)c2cccnc2n(-c2ccccc2)c1=O)c1ccccc1 (configuration not stated) — higher, 1190 s
- Cc1ccc(CNC(=O)CSCc2nc3cccnc3n2C2CCCCC2)o1 — lower, 877 s
- COc1ccc(Cl)cc1S(=O)(=O)c1cnc(N2CCC(C)CC2)nc1N — lower, 1040 s
- COC(=O)C1=C(C)N(C2CCCC2)C(=O)C1(NC(=O)c1cccc(OC)c1)C(F)(F)F (configuration not stated) — lower, 1010 s
- c1cncc(CN2CCc3c(sc4ncnc(N5CCOCC5)c34)C2)c1 — lower, 649 s
- Oc1ccc2c3c1O[C@H]1[C@@H](O)CC[C@@]4(O)C(C2)N(CC2CCC2)CCC314 (some centres not stated) — lower, 635 s
- O=C(c1ccc(F)c(F)c1)N1CCCC(c2ccnc(-c3cccc(F)c3)n2)C1 (configuration not stated) — higher, 1120 s
- O=C(NC1CCCC1)C1CCCN(c2ccc(=O)n(-c3cccc(F)c3)n2)C1 (configuration not stated) — lower, 784 s
- Cc1ccn2c(Nc3ccc4c(c3)OCCO4)c(-c3ccccc3O)nc2c1 — lower, 670 s
- CCCn1cc(C2=CCN(S(=O)(=O)Cc3ccccc3)CC2)c2cccnc21 — lower, 1070 s
- Cn1nc(C(=O)N2CCCC(C(=O)NC3CC3)C2)c2c1CCN(C(=O)c1ccc(F)cc1)C2 (configuration not stated) — lower, 633 s
- COc1ccc(OC)c(-c2cc(C(=O)NCCn3cnc(-c4ccccc4)cc3=O)[nH]n2)c1 — lower, 736 s
- CCn1cc(-c2nc(-c3ccc(OC)cc3OC)no2)c(=O)c2cc(F)ccc21 — lower, 830 s
- O=C(Nc1nccs1)C1CCCN(S(=O)(=O)c2c[nH]c(C(=O)N3CCCC3)c2)C1 (configuration not stated) — lower, 688 s
- CC(C)c1nnc(NC(=O)c2cc(Cl)ccc2Cl)s1 — lower, 828 s
- CC1CCN(c2cc(-n3cnc(C(=O)Nc4ccc(N(C)C)cc4)c3)ncn2)CC1 — lower, 751 s
- O=S(=O)(c1ccccc1)N1CCC(c2noc(-c3cccc(F)c3)n2)CC1 — higher, 1110 s
- COc1ccc(CC(=O)N2CCC3(CC2)C(=O)N(C)c2ccccc23)cc1OC — lower, 752 s
- CCS(=O)(=O)Nc1ccc(C2(C(=O)NCc3cccc(F)c3)CCCCC2)cc1 — lower, 933 s
- COc1ccc(-c2nc3cnccn3c2Nc2ccc(C)c(Cl)c2)cc1OC — lower, 878 s
- Cc1noc(C)c1Cc1ccc(C(=O)NCC23CCC=C2N(C)C(=O)CC3)o1 (configuration not stated) — lower, 727 s
- CC(C)c1cccc(NC(=O)Cn2cnc3nc(N4CCCC(C(=O)NC5CC5)C4)sc3c2=O)c1 (configuration not stated) — lower, 723 s
- COc1cc(C(=O)NC(CC(C)C)C(=O)Nc2nc3ccccc3[nH]2)cc(OC)c1OC (configuration not stated) — lower, 733 s
- O=S(=O)(c1cccn2cnnc12)N(Cc1cccc(F)c1)c1ccc(F)cc1 — lower, 822 s
- Cc1noc(CNC(=O)CCCN2C(=O)c3ccccc3C2=O)n1 — lower, 633 s
- CN1C(=O)C2(CCN(C(=O)c3ccccc3F)C2)c2ccccc21 (configuration not stated) — lower, 750 s
- Cc1ccc(NC(=O)Cn2cnc3nc(N4CCCC(C(=O)NC(C)C)C4)sc3c2=O)c(C)c1 (configuration not stated) — lower, 710 s
- CN(C)C(=O)Cn1cnc2ccccc2c1=O — lower, 583 s
- CN(C)C(=O)c1cc2c(s1)CCC(C(=O)Nc1ccccc1)C2 (configuration not stated) — lower, 772 s
- COc1cccc(-c2noc(CN3C(=O)COc4ccc(Cl)cc43)n2)c1OC — lower, 1020 s
- Cc1ccc2c(Nc3cc(F)ccc3F)c(C(=O)OC(C)C)cnc2n1 — lower, 771 s
- Cc1cc(N2CCN(S(=O)(=O)c3cc(F)ccc3F)CC2)nc(NC2CCCCC2)n1 — lower, 821 s
- COc1ccc(-c2noc(-c3cccnc3N3CCN(c4ccccc4)CC3)n2)cc1 — higher, 1290 s
- COC(=O)C1=CN(c2cccc(F)c2)c2cc(F)ccc2S1(=O)=O — lower, 869 s
- CC(Oc1ccccc1)C(=O)N1CC(n2ccnc2)C1 (configuration not stated) — lower, 584 s
- CCCNC(=O)Cn1cc(C(=O)Nc2cc(C)cc(C)c2)c(=O)c2ccc(C)nc21 — lower, 982 s
- O=C(c1ccncc1)N1CCC(n2nc(-c3ccsc3)ccc2=O)CC1 — lower, 624 s
- CCCN1C(=O)C2CCC(=O)N2c2ccc(C(=O)NC(C)C)cc21 (configuration not stated) — lower, 669 s
- Cc1nc2c(sc3nc(-c4ccccc4)ccc32)c(=O)n1CC(=O)NCCc1ccc(Cl)cc1 — the same, 1080 s
- O=C(NC1CCCCC1)C1CCN(Cc2cc3ccccc3n2Cc2ccccc2Cl)CC1 — lower, 847 s
- Cc1c(-c2nsc(Nc3ccccc3)n2)nnn1-c1ccccc1 — lower, 946 s
- Cn1nc(C(=O)N2CCN(c3cc(-c4ccccc4)ncn3)CC2)ccc1=O — lower, 547 s
- CN1CCN(C(CNC(=O)Cc2cccc3ccccc23)c2ccsc2)CC1 (configuration not stated) — lower, 564 s
